Patent publication US10723706B2, “Perk inhibitors and uses thereof in treating diseases associated with aggregation-prone proteins” (Ramot at Tel-Aviv University Ltd., priority 2016, dated 2020)
Entries after “also recorded” stand apart in the source; their conditions may differ.

What was measured:
R6/2 transgenic mice [1] = experiment: Survival of R6/2 mice; assay type: in vivo, mouse
Method: Animals were treated as described in FIGS. 7-9. Transgenic mice receiving MK-28 (blue) or vehicle (red) were analyzed for mice survival (n=13/group). Gehan-Breslow-Wilcoxon Test for comparisons of Kaplan-Meier survival curves indicated a significant increase in the survival of MK-28 treated mice compared to untreated littermates (median survival 97 and 89 days, respectively, p=0.0469). Ratio 1.887, 95% CI of ratio 0.7726 to 4.611.
(§1) Alzet pumps were implanted at 4 weeks of age and MK-28 was administered at 1 mg/kg with continuous dosing for 28 days. This concentration is in a typical clinical dose range. The mice's motor function and coordination were tested by Rotarod, and limb clasping, ledge, gait and kyphosis were also tested. Vocalization tests were also performed and survival was assessed. Tests were performed in two independent blind experiments.

R6/2 transgenic mice [2] = experiment: Combined motor phenotype (ledge, clasping, gait, kyphosis) in R6/2 mice; assay type: in vivo, mouse
Excerpt: Hind-limb clasping behavior was scored on a scale from 0 to 3: 0=normal; 1=clasps hind limbs within 30 seconds of being suspended in the air; 2=clasps hind limbs within 5 seconds but recovers quickly when released after 30 seconds; 3=clasps hind limbs within 5 seconds and has difficulty recovering when released after 30 seconds.
The ledge test is a direct measure of coordination. Mice were lifted from the cage and placed on the cage's ledge. Mice will typically walk along the ledge and attempt to descend back into the cage. Walking along the ledge without losing its balance is assigned a score of 0. If the mouse loses its footing while walking along the ledge, it receives a score of 1. […] If it falls off the ledge, or nearly so, while walking or attempting to lower itself, or shakes and refuses to move at all despite encouragement, it receives a score of 3.
Gait is a measure of coordination and muscle function. […]
In parallel to the Rotarod analysis motor function and disease severity were evaluated using a simple composite phenotype that includes the combined analysis of hind limb clasping, ledge walk, gait and kyphosis [Guyenet et al., J Vis Exp 2010, (39):1787]. This test has the ability to effectively discriminate between affected and non-affected individuals, while also quantifying the temporal progression of neurodegenerative disease phenotypes such as HD.

R6/2 transgenic mice [3] = experiment: Ultrasonic vocalization of R6/2 mice; assay type: in vivo, mouse
Method: Mice were treated as described in FIGS. 7 and 8. Transgenic mice receiving (MK-28 TG+) or vehicle (TG) were analyzed for vocalization as number of syllables in 5 minutes intervals. (n=3-4, p=0.059).
as §1
Vocalization was evaluated, as it reflects motor and cognitive abilities.

STHdhQ111/111 cells [4] = experiment: Rescue of cells incubated in DMEM without serum and without Tun, PI cell cycle FACS; assay type: cell-based, murine; conditions: 48 hours in DMEM without serum and without Tun
Method: (§2) STHdhQ7/7 and STHdhQ111/111 cells were grown as described in Leitman et al. [PLoS One 2014, 9(3):e90803].
(§3) After the indicated treatment times in full medium or in DMEM without serum, cells were incubated with propidium iodide (PI) solution ([…]) and read by flow cytometry as described in Leitman et al. [PLoS One 2014, 9(3):e90803]. Cells in sub-G0/G1 were counted as apoptotic/dead cells.
(§4) The activity of the novel inhibitors, compared to A4, in preventing cytotoxicity induced by pathogenic Htt, was then tested. A stable murine striatal cell line expressing full-length polyQ-expanded Htt, STHdhQ^111/111, was used.

STHdhQ111/111 cells [5] = experiment: Rescue from UPR-induced cell death (tunicamycin), PI cell cycle FACS, sub-G0/G1 fraction; assay type: cell-based
Method: as §2, §3, §4

[6] = Weight evaluation after pump implantation; assay type: in vivo, mouse; conditions: TG and WT mice, 7 weeks after pump implantation, 1 mg/kg for 28 days
Method: For the therapeutic assessment of MK-28 delivery, Alzet pumps model 1004, with a rate of 0.11 μl/hour and 28 days compound delivery were used. Five groups of mice were studied: (1) Transgenic (TG) treated with MK-28, (2) TG without treatment (pumps with vehicle), (3) Wild-type (WT) treated with MK-28, (4) WT without treatment (pumps with vehicle), (5) WT without pumps.
as §1

wild type (WT) mice = experiment: Toxicity in wild type mice, continuous subcutaneous dosing by Alzet pump; assay type: in vivo, mouse; conditions: 6 mg/kg for 2 weeks
[7] = system: betaTC-tet pancreatic islet beta-cell line; experiment: Toxicity in pancreatic beta cells; assay type: cell-based, mouse
Method: MK-28 toxicity was tested in pancreatic beta cells, the type of cell that is most sensitive when ER stress response pathways are affected. A conditionally transformed mouse pancreatic islet beta-cell line (betaTC-tet), such as described by Efrat [Ann NY Acad Sci 1999, 875:286-293], was used. These cells produce high amounts of insulin, resulting in a high protein load in the ER, making them very sensitive to ER stress and other stimuli, such as cytokine effects. Compromising any of the UPR branches leads to cytotoxicity in these cells. MK-28 was compared to the ER stressor tunicamycin (Tun).

Structure (SMILES): CN(/N=C\c1ccc(O)c(O)c1)c1nc(-c2ccccc2)cc(-c2ccccc2)n1 [Compound 3, 2-{N-methyl-N′-(3,4-dihydroxybenzylidene)hydrazinyl}-4,6-diphenylpyrimidine]
- delay of death initiation versus vehicle (R6/2 transgenic mice [1]; R6/2 TG mice): ~10 days
- increase in median survival versus untreated TG (R6/2 transgenic mice [1]; R6/2 TG mice): 8 days
- median survival (R6/2 transgenic mice [1]; R6/2 TG mice treated age weeks 4 to 8, n=13/group, p=0.0469): 97 days
- Ratio, comparison of Kaplan-Meier survival curves (R6/2 transgenic mice [1]; R6/2 TG mice, 95% CI of ratio 0.7726 to 4.611): 1.887
- combined phenotype score of TG mice versus untreated TG (R6/2 transgenic mice [2]; R6/2 TG mice, from week 6 after pump implantation, p<0.05, listed as MK-28): lower scores; also recorded: significant improvement
- combined phenotype of WT mice (R6/2 transgenic mice [2]; WT mice, p>0.05): no detrimental effect
- vocalization, number of syllables (R6/2 transgenic mice [3]; R6/2 TG mice treated with MK-28, n=3-4, p=0.059): 13.75 syllables in 5 minutes
- vocalization effect versus untreated R6/2 (R6/2 transgenic mice [3]; R6/2 TG mice, listed as MK-28): three fold difference; also recorded: improved
- protective (rescue) effect without ER stressor (STHdhQ111/111 cells [4]): strong protective effect, in the low micromolar range
- protective (rescue) effect without ER stressor (STHdhQ111/111 cells [4]; listed as MK-28): strong rescue effect
- rescue from UPR-induced cell death (cytotoxicity) (STHdhQ111/111 cells [5]; Tun for 48 hours): significantly more potent than A4
- fold lower IC50 than A4 for inhibition of cytotoxicity (STHdhQ111/111 cells [5]; additional ER stress caused by tunicamycin): > 3 fold
- weight versus vehicle [6]: no significant differences
- toxic effects in WT mice (wild type (WT) mice): no toxic effects were observed
- toxicity in pancreatic beta cells [7]: very low toxicity
